Reference: patent publication US20230034584A1, “INHIBITORS OF SHP2” (Bayer Aktiengesellschaft, priority 2019, published 2023)
Like-named read-outs stand apart in the source and are kept apart here.

Key:
20 other PTPs = conditions: literature value; cited from earlier work
MRL/lpr mice = MRL/lpr mice treated with the SHP2 inhibitor; cited from earlier work
[1] = test system: pERK levels in the injured kidneys; experiment: Phospho-ERK quantification in kidney lysates (HTRF), UUO mice; format: in vivo, mouse; conditions: 1 and 10 mg/kg once daily p.o.
Procedure: Kidney tissue from animal studies was homogenized in supplemented HTRF lysis buffer (Cisbio). The volume of lysis buffer is adjusted at 1 mL per 100 mg tissue. Homogenization was performed with […] steel beads in Mixer Mill (Retsch, MM300) for 2.5 min/25 Hz, followed by sample cooling on ice. The protein concentration in tissue lysates was adjusted to 0.1-0.5 mg/mL and HTRF pERK assay performed as described above.
(§1) The study was performed on male C57/Bl6J mice (age: 7-8 weeks) that were obtained from Charles River. Mice were anesthetized with continuous inhaled isoflurane, and the left ureter was exposed via a mid-abdominal incision. The mid-ureter was obstructed by two point ligation with silk sutures. The SHAM-operated mouse (n=6) underwent the same procedure except for the obstruction of the left ureter. […] As a placebo, a solution without active ingredient was used (group 2), and a sham operated group with unligated kidney was used as a […] (group 1)

log D = format: physicochemical
C57/Bl6J mice with UUO [2] = experiment: UUO mouse model, macrophage infiltration by flow cytometry (CD45, F4/80); format: in vivo; conditions: 1 and 10 mg/kg once daily p.o.
Procedure: Experiments indicative for chronic kidney diseases were carried out in unilateral ureteral obstruction (UUO) mouse models (examples 1). Such treatment results in the short version of the UUO model (3 days) in pronounced macrophage infiltration into the affected kidney, which is one of the triggers for the subsequent interstitial fibrosis and nephron damage. Collagen expression is increased in UUO after 10 days as a result of renal fibrosis, while alpha-smooth muscle actin (ASMA) expression is increased as a result of reduced renal function, or fibroblast expansion (see Chevalier et al, 2009).
as §1
The infiltration of macrophages in response to the renal injury was measured in a flow cytometry assay with detection antibodies binding to the pan-leukocyte marker CD45, as well as to the macrophage-specific antigen. F4/80.

[3] = test system: ERK1/2 Thr202/Tyr204-phosphorylation in human renal proximal tubular epithelial cells (RPTEC); experiment: Phospho-ERK cellular assay (HTRF); format: cell-based; conditions: read-out: IC50, inhibition of ERK phosphorylation
Procedure: Cellular pERK assay was used to determine compound activity on modulating ERK1/2 Thr202/Tyr204-phosphorylation in renal cells. […] The intracellular levels of ERK1/2 phosphorylated at Thr202/Tyr204 were quantified with Advanced Phospho-ERK HTRF assay (Cisbio, Cat. #64AERPEH). Compound incubation was terminated by addition of 16 μL lysis buffer (Cisbio) and 4 μL pERK HTRF® antibody cocktail (Cisbio).

C57/Bl6J mice with UUO [4] = experiment: Unilateral ureteral obstruction (UUO) mouse model, 10 days, fibrosis markers; format: in vivo; conditions: for αSMA-positive area within the obstructed kidney / Collagen content (Sirius Red/Fast Green staining) of obstructed kidney: ten days, histology
Procedure: Experiments indicative for chronic kidney diseases were carried out in unilateral ureteral obstruction (UUO) mouse models (examples 1). Such treatment results in the short version of the UUO model (3 days) in pronounced macrophage infiltration into the affected kidney, which is one of the triggers for the subsequent interstitial fibrosis and nephron damage. Collagen expression is increased in UUO after 10 days as a result of renal fibrosis, while alpha-smooth muscle actin (ASMA) expression is increased as a result of reduced renal function, or fibroblast expansion (see Chevalier et al, 2009). The study was performed on male C57/Bl6J mice (age: 7-8 weeks) that were obtained from Charles River. Mice were anesthetized with continuous inhaled isoflurane, and the left ureter was exposed via a mid-abdominal incision. The mid-ureter was obstructed by two point ligation with silk sutures. The SHAM-operated mouse (n=6) underwent the same procedure except for the obstruction of the left ureter. The mice were randomized into four groups (n=10 each group): UUO plus vehicle (10% EtOH/40% PEG/50% water), UUO plus 3 [mg/kg] SHP099, UUO plus 30 [mg/kg] SHP099. Mice were dosed bidaily with vehicle and SHP099. The forth group of mice with UUO was treated once daily with Tivozanib (technical control). At ten days after surgery, mice were euthanized, and kidneys were collected and divided in two parts. One part was snap-frozen in liquid nitrogen for RNA analysis. The other part was stored in Davidson's fixative for the preparation of histological sections. Total RNA was isolated from parts of harvested kidneys. Kidney tissue was homogenized and RNA was obtained and transcribed to cDNA. Using TaqMan real time PCR renal mRNA expression of fibrotic markers was analyzed in kidney tissues. For the assessment of fibrosis on the protein level paraffin tissue sections were stained with alpha-smooth muscle actin (αSMA) and Sirius Red/Fast Green Collagen Stainings using standard procedures. Quantitative measurements of alpha-smooth muscle actin (αSMA)-positive as well as Sirius Red (Collagen) positive areas within the kidneys were obtained by computer image analysis using the Axio Scan Z1 (Zeiss) microscope and the Zen software. All data are expressed as means±S.D. Differences between groups were analyzed by one-way ANOVA with Dunnett's corrections for multiple comparisons. Statistical significance was defined as p<0.05.

[5] = 3 and 30 mg/kg bidaily, ten days after surgery, TaqMan PCR
[6] = human proximal tubular epithelial cells (immortalized RPTEC), pERK HTRF

## Cn1c(-c2cccc(NC(=O)C(=O)Nc3ccc(-c4ccsc4)cc3)c2)c(I)c2cc(C(=O)O)c(O)cc21 [11a-1]
20 other PTPs
  selectivity against any of 20 other PTPs: > 5 fold
MRL/lpr mice
  progression of kidney disease in SLE-prone mice: prevented the progression of kidney disease

## Cc1nc(N2CCC3(CC2)CO[C@@H](C)[C@H]3N)c(CO)nc1-c1cccc(Cl)c1Cl [RMC-4550, [3-[(3S,4S)-4-amino-3-methyl-2-oxa-8-azaspiro[4.5]decan-8-yl]-6-(2,3-dichlorophenyl)-5-methylpyrazin-2-yl}methanol]
[1]
  pERK levels in the injured kidneys: dose-dependently reduced
Log D
  logD: 2.2
C57/Bl6J mice with UUO [2]
  macrophage infiltration into the kidney: significant, dose-dependent reduction
[3]; Homo sapiens, RPTEC
  IC50: 12.6 nM

## CC1(N)CCN(c2cnc(-c3cccc(Cl)c3Cl)c(N)n2)CC1 [SHP099]
C57/Bl6J mice with UUO [4]; 3 mg/kg bidaily
  αSMA-positive area within the obstructed kidney: significant reduction
C57/Bl6J mice with UUO [4]; [5]
  collagen RNA expression in kidney: dose-dependent reduction
  αSMA RNA expression in kidney: dose-dependent reduction
C57/Bl6J mice with UUO [4]; both dosages (3 and 30 mg/kg bidaily)
  Collagen content (Sirius Red/Fast Green staining) of obstructed kidney: dose dependently and significantly reduced
[3]; [6]
  IC50: 306 nM

## C[C@@H]1OCC2(CCN(c3cnc(Sc4ccnc(N)c4Cl)c(N)n3)CC2)[C@@H]1N [TNO-155, (3S,4S)-8-(6-amino-5-((2-amino-3-chloropyridin-4-yl)thio)pyrazin-2-yl)-3-methyl-2-oxa-8-azaspiro[4.5]decan-4-amine]
[3]; [6]
  IC50: 46.4 nM

## COc1cc2nccc(Oc3ccc(NC(=O)Nc4cc(C)on4)c(Cl)c3)c2cc1OC [Tivozanib]
C57/Bl6J mice with UUO [4]; once daily (technical control)
  Collagen content (Sirius Red/Fast Green staining) of obstructed kidney: significantly reduced
  αSMA-positive area within the obstructed kidney: significantly reduced
